Experimental data: ChEMBL document CHEMBL1155497, “Double stranded DNA discrimination by di-pyrene modified gamma-cyclodextrin” (Bioorg Med Chem Lett, 2010)
Calls of active or inactive are those of the source. No cut-off for these calls is given here.

Columns and labels:
Assay type in all cases: nucleic-acid assay
Nucleic Acid [1] = assay: Binding affinity to double strand DNA assessed as increase in fluorescence intensity by fluorescence spectroscopy technique
Nucleic Acid [2] = assay: Binding affinity to single strand DNA assessed as increase in fluorescence intensity using 0.00075 uM of DNA by fluorescence spectroscopy technique
Nucleic Acid [3] = assay: Binding affinity to single strand DNA assessed as increase in fluorescence intensity using > 0.00075 uM of DNA by fluorescence spectroscopy technique
Nucleic Acid [4] = assay: Binding affinity to double strand DNA assessed as increase in fluorescence intensity at 0.6 uM by fluorescence spectroscopy technique
Nucleic Acid [5] = assay: Binding affinity to single strand DNA assessed as increase in fluorescence intensity at 0.6 uM by fluorescence spectroscopy technique
Nucleic Acid [6] = assay: Binding affinity to double strand DNA assessed as increase in fluorescence intensity at 0.1 uM by fluorescence spectroscopy technique
Nucleic Acid [7] = assay: Binding affinity to single strand DNA assessed as increase in fluorescence intensity at 0.1 uM by fluorescence spectroscopy technique
Nucleic Acid [8] = assay: Binding affinity to double strand DNA assessed as increase in fluorescence intensity using 0.00075 uM of DNA at 0.3 uM by fluorescence spectroscopy technique
Nucleic Acid [9] = assay: Binding affinity to double strand DNA assessed as increase in fluorescence intensity using > 0.00075 uM of DNA at 0.3 uM by fluorescence spectroscopy technique
Nucleic Acid [10] = assay: Binding affinity to single strand DNA assessed as increase in fluorescence intensity at 0.3 uM by fluorescence spectroscopy technique

For CCCN(CCCN(C)C)C1=CC(Cc2sc3ccccc3[n+]2C)c2ccccc2N1c1ccccc1 (stereo not given), which Activity (Nucleic Acid [1]) is on record?
The Activity was “Active”.

What about the Activity (Nucleic Acid [2]) of the same compound?
Its Activity is “Active”.

What about the Activity (Nucleic Acid [3]) of the same compound?
Its Activity is “Active”.

How did the Activity (Nucleic Acid [4]) turn out when O=C(CSC[C@H]1O[C@@H]2O[C@@H]3[C@@H](CO)C[C@H](O[C@H]4[C@H](O)[C@@H](O)[C@@H](O[C@H]5[C@H](O)[C@@H](O)[C@@H](O[C@H]6[C@H](O)[C@@H](O)[C@@H](O[C@H]7[C@H](O)[C@@H](O)[C@@H](O[C@H]8[C@H](O)[C@@H](O)[C@@H](O[C@H]9[C@H](O)[C@@H](O)[C@@H](O[C@H]1[C@H](O)[C@H]2O)O[C@@H]9CO)O[C@@H]8CSCC(=O)NCCOCCOCCOCc1ccc2ccc8cccc9ccc1c2c89)O[C@@H]7CO)O[C@@H]6CO)O[C@@H]5CO)O[C@@H]4CO)[C@H](O)[C@H]3O)NCCOCCOCCOCc1ccc2ccc3cccc4ccc1c2c34 was run?
The Activity was “inactive”.

What about the Activity (Nucleic Acid [5]) of the same compound?
Its Activity is “inactive”.

What about the Activity (Nucleic Acid [6]) of the same compound?
Its Activity is “inactive”.

And the Activity (Nucleic Acid [7])?
The Activity was “inactive”.

Which Activity (Nucleic Acid [8]) does the source give for O=C(NCCOCCOCCOCc1ccc2ccc3cccc4ccc1c2c34)SC[C@H]1O[C@@H]2O[C@H]3[C@H](O)[C@@H](O)[C@@H](O[C@H]4[C@H](O)[C@@H](O)[C@@H](O[C@@H]5[C@@H](CO)C[C@H](O[C@H]6[C@H](O)[C@@H](O)[C@@H](O[C@H]7[C@H](O)[C@@H](O)[C@@H](O[C@H]8[C@H](O)[C@@H](O)[C@@H](O[C@H]9[C@H](O)[C@@H](O)[C@@H](O[C@H]1[C@H](O)[C@H]2O)O[C@@H]9CO)O[C@@H]8CO)O[C@@H]7CO)O[C@@H]6CSC(=O)NCCOCCOCCOCc1ccc2ccc6cccc7ccc1c2c67)[C@H](O)[C@H]5O)O[C@@H]4CO)O[C@@H]3CO here?
Its Activity is “Active”.

And the Activity (Nucleic Acid [9])?
The Activity was “inactive”.

And the Activity (Nucleic Acid [10])?
The Activity was “inactive”.
